Data from US11925667B2, “Engineered therapeutic probiotic system and method” (priority 2018, dated 2024).

How the values were obtained:
Assay type in all cases: biochemical
[1] = target: T1, Brevicoryne brassicae myrosinase BMY1 (Brevicoryne brassicae, UniProt Q95X01); assay: Myrosinase activity assay (glucose release from sinigrin hydrolysis), BMY1
T1 sequence (Q95X01 1-464): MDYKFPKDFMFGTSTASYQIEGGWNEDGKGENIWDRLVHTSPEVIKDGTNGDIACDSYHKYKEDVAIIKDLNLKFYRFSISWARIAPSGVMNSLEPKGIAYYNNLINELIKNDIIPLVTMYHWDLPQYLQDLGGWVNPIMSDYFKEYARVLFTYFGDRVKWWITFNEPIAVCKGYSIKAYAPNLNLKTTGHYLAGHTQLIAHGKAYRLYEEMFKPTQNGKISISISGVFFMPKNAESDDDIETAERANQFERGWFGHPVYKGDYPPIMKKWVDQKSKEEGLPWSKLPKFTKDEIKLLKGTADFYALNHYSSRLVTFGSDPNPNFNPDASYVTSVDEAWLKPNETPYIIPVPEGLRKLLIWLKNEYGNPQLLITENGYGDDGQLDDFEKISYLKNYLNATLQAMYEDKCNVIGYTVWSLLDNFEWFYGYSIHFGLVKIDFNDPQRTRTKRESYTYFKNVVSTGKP
Procedure: (§1) Screening for improved β-thioglucosidase. The activity and stability of myrosinase, a β-thioglucosidase that hydrolyzes glucosinolate to sulforaphane, varies at differing pH and temperature; in a preferred embodiment the selected enzyme needs to function under physiological colorectal conditions. The healthy colon pH averages 6.6, while it is 7.0 and 6.7 in patients with adenoma and carcinoma, respectively. In addition, the temperature of the human intestinal tract ranges from 36° C. to 40° C. depending on the individual's metabolic state. In the illustrative example five plant-derived myrosinase orthologues with minimal glycosylation sites and the absence of the co-factor-binding sites using the BLAST search and the Enzyme Function Initiative-Enzyme Similarity Tool (EFI-EST), are compared to the well-characterized myrosinases from Brevicoryne brassicae (BMY1) and Arabidopsis thaliana (TGG1) (FIG. 2a and FIG. 7).
(§2) Gene cloning, protein expression and purification. Myrosinase genes are optimized for E. coli expression and cloned into the pET28b expression vector. The plasmids are transformed into E. coli BL21 (DE3) cultured in lysogeny broth (LB) (BD, Le Pont de Claix, France) at 37° C., 225 rpm to OD600 0.6 followed by 0.5 mM isopropyl β-D-1-thiogalactopyranoside (IPTG) induction at 16° C., 180 rpm for 16 hours. Cells are harvested, resuspended in lysis buffer (50 mM Tris-Cl, 300 mM NaCl, 10% glycerol, 1 mM dithiothreitol [DTT], pH 8.0) and lysed using Emulsiflex C-3 (Avestin). Expressed myrosinases are purified by IMAC Ni-NTA purification followed by Hi-Load Superdex 200 size exclusion column chromatography (GE, Uppsala, Sweden). The purified protein is concentrated and stored at −80° C. Pilot scale protein purification and enzymatic assay is conducted.
(§3) Myrosinase screening assay. The enzymatic reaction is measured for the release of glucose resulting from sinigrin hydrolysis. The reaction is conducted in sodium phosphate-buffered solution supplied in the Amplex® Red Glucose/Glucose Oxidase Assay Kit (Thermo Fisher Scientific, Geel, Belgium). The reaction buffer is prepared at different pH values (6.0, 6.5, 7.4 and 8.0) and at different reaction temperatures (34° C., 37° C., and 40° C.). The reaction is prepared using 0.1 μM purified myrosinase added to 1× Amplex® Red Glucose Assay reaction mixture and was kick-started with the corresponding concentration of sinigrin. The reaction can be measured at 560 nm absorbance and fluorescence (λex=540 nm, λem=590 nm) using a Synergy H1 Multi-Mode microtiter plate reader (BioTek®, Winooski, USA). The reaction initial velocity (VO) is determined and fitted into a Michaelis-Menten curve. Vmax and KM are determined by fitting into the Michaelis-Menten equation (Eq. 1) using GraphPad Prism Software. ^v=Vmax*[Sinigrin]/(KM+[Sinigrin]) (Eq.1)
(§4) Table S1|Myrosinase activity assay screening under various pH and temperature conditions (n=3 independent experiments, each measurement performed in triplicates; mean[…].).

[2] = target: Arabidopsis thaliana myrosinase TGG1 (Arabidopsis thaliana, UniProt P37702); assay: Myrosinase activity assay (glucose release from sinigrin hydrolysis), TGG1
Procedure: as §1, §2, §3, §4

[3] = test system: Brassica oleacea myrosinase A6; assay: Myrosinase activity assay (glucose release from sinigrin hydrolysis), A6
Excerpt: (§5) In a preferred embodiment, the myrosinases derived from Armoracia rusticana (I1) and Brassica oleacea (A6) have a better stability and catalytic efficiency in various temperatures and pH values when compared with those derived from BMY1 and TGG1 (Table 1). In a preferred illustrative embodiment I1 myrosinase is selected owing to its Km value and improved kcat at the colorectal ambient temperature and pH (FIG. 2c, 2d and Table 1). By comparing the modeled-I1 myrosinase protein structure against that of the BMY1 myrosinase, the critical side chain residues involved in glucose-ring recognition and the glutamic acid that served as a nucleophile during catalysis are conserved. According to the claimed invention the improved catalytic efficiency of the I1 myrosinase is correlated to its pI value (pI=7.90) and the overall positively charged surface (FIG. 8) that contributes to better structural stability.
as §2, §3, §4

[4] = test system: myrosinase C9 (plant-derived myrosinase orthologue); assay: Myrosinase activity assay (glucose release from sinigrin hydrolysis), C9
Procedure: as §1, §2, §3, §4

[5] = target: T2, Armoracia rusticana myrosinase I1, SEQ ID NO: 6 (Armoracia rusticana, UniProt I1TIJ2); assay: Myrosinase activity assay (glucose release from sinigrin hydrolysis), I1
T2 construct: elsewhere used as YebF-I1 fusion
T2 sequence (I1TIJ2 23-510): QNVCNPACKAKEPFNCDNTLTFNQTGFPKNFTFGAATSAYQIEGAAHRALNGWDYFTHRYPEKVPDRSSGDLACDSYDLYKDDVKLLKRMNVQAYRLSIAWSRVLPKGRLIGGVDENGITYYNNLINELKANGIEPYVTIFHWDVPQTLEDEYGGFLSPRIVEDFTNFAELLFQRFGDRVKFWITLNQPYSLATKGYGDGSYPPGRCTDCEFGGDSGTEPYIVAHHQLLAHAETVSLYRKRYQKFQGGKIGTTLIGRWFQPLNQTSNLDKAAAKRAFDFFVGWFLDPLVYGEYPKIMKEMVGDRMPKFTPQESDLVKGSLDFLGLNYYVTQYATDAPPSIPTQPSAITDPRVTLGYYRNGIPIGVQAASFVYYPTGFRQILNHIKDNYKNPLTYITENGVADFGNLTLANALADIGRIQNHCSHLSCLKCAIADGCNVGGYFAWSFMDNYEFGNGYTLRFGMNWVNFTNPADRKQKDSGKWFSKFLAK
Excerpt: as §5, §2, §3, §4

[6] = test system: myrosinase Q5 (plant-derived myrosinase orthologue); assay: Myrosinase activity assay (glucose release from sinigrin hydrolysis), Q5
Procedure: as §1, §2, §3, §4

[7] = test system: myrosinase Q9 (plant-derived myrosinase orthologue); assay: Myrosinase activity assay (glucose release from sinigrin hydrolysis), Q9
Procedure: as §1, §2, §3, §4

Chain of Arabidopsis thaliana myrosinase TGG1 (P37702 20-541): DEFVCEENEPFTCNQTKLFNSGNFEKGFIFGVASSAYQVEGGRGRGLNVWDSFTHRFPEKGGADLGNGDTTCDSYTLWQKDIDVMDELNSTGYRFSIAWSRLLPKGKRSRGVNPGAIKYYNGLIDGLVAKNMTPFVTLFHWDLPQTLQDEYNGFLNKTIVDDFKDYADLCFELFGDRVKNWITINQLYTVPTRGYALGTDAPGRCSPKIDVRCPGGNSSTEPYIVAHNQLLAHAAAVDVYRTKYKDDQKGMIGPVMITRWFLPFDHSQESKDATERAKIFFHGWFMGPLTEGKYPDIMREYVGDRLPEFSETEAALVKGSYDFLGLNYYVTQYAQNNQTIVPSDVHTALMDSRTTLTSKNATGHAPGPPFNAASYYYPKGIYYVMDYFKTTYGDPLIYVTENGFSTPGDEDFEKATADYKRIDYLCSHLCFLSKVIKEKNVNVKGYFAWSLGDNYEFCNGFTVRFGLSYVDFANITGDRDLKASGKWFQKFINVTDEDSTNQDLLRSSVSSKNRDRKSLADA

C=CC/C(=N/OS(=O)(=O)O)S[C@@H]1O[C@H](CO)[C@@H](O)[C@H](O)[C@H]1O [sinigrin]
kcar ([1]; pH 6.0, 37° C.): 5.7 ± 0.8 s⁻¹
kcar ([1]; pH 6.5, 37° C.): 11.8 ± 0.4 s⁻¹
kcar ([1]; pH 7.4, 34° C.): 6.9 ± 0.4 s⁻¹
kcar ([1]; pH 7.4, 37° C.): 6.0 ± 0.7 s⁻¹
kcar ([1]; pH 7.4, 40° C.): 9.1 ± 0.8 s⁻¹
kcar ([1]; pH 8.0, 37° C.): 5.6 ± 0.6 s⁻¹
kcar ([2]; pH 6.0, 37° C.): 10.2 ± 0.6 s⁻¹
kcar ([2]; pH 6.5, 37° C.): 8.6 ± 1.6 s⁻¹
kcar ([2]; pH 7.4, 34° C.): 6.9 ± 1.6 s⁻¹
kcar ([2]; pH 7.4, 37° C.): 6.4 ± 1.1 s⁻¹
kcar ([2]; pH 7.4, 40° C.): 6.5 ± 0.2 s⁻¹
kcar ([2]; pH 8.0, 37° C.): 4.3 ± 0.7 s⁻¹
Km ([3]; pH 6.0, 37° C.): 68 ± 2 µM
kcar ([3]; pH 6.0, 37° C.): 6.6 ± 1.3 s⁻¹
Km ([3]; pH 6.5, 37° C.): 187 ± 13 µM
kcar ([3]; pH 6.5, 37° C.): 15.0 ± 1.5 s⁻¹
Km ([3]; pH 7.4, 34° C.): 47 ± 5 µM
kcar ([3]; pH 7.4, 34° C.): 7.2 ± 1.3 s⁻¹
Km ([3]; pH 7.4, 37° C.): 44 ± 4 µM
kcar ([3]; pH 7.4, 37° C.): 5.2 ± 0.9 s⁻¹
Km ([3]; pH 7.4, 40° C.): 189 ± 39 µM
kcar ([3]; pH 7.4, 40° C.): 9.7 ± 1.3 s⁻¹
Km ([3]; pH 8.0, 37° C.): 142 ± 22 µM
kcar ([3]; pH 8.0, 37° C.): 9.3 ± 1.2 s⁻¹
Km ([4]; pH 6.0, 37° C.): 439 ± 97 µM
kcar ([4]; pH 6.0, 37° C.): 5.6 ± 0.8 s⁻¹
Km ([4]; pH 6.5, 37° C.): 290 ± 31 µM
kcar ([4]; pH 6.5, 37° C.): 9.0 ± 0.9 s⁻¹
Km ([4]; pH 7.4, 34° C.): 384 ± 28 µM
kcar ([4]; pH 7.4, 34° C.): 11.2 ± 2.4 s⁻¹
Km ([4]; pH 7.4, 37° C.): 38 ± 2 µM
kcar ([4]; pH 7.4, 37° C.): 3.4 ± 0.6 s⁻¹
Km ([4]; pH 7.4, 40° C.): 352 ± 68 µM
kcar ([4]; pH 7.4, 40° C.): 9.0 ± 0.9 s⁻¹
Km ([4]; pH 8.0, 37° C.): 842 ± 80 µM
kcar ([4]; pH 8.0, 37° C.): 10.7 ± 1.3 s⁻¹
kcar ([5]; pH 6.0, 37° C.): 6.6 ± 0.7 s⁻¹
kcar ([5]; pH 6.5, 37° C.): 7.9 ± 1.1 s⁻¹
kcar ([5]; pH 7.4, 34° C.): 3.4 ± 0.7 s⁻¹
kcar ([5]; pH 7.4, 37° C.): 15.0 ± 1.5 s⁻¹
kcar ([5]; pH 7.4, 40° C.): 15.2 ± 1.5 s⁻¹
kcar ([5]; pH 8.0, 37° C.): 6.6 ± 3.1 s⁻¹
Km ([6]; pH 6.0, 37° C.): 184 ± 15 µM
kcar ([6]; pH 6.0, 37° C.): 4.6 ± 1.1 s⁻¹
Km ([6]; pH 6.5, 37° C.): 127 ± 21 µM
kcar ([6]; pH 6.5, 37° C.): 4.9 ± 1.2 s⁻¹
Km ([6]; pH 7.4, 34° C.): 225 ± 13 µM
kcar ([6]; pH 7.4, 34° C.): 2.9 ± 1.4 s⁻¹
Km ([6]; pH 7.4, 37° C.): 25 ± 7 µM
kcar ([6]; pH 7.4, 37° C.): 2.1 ± 1.6 s⁻¹
Km ([6]; pH 7.4, 40° C.): 49 ± 14 µM
kcar ([6]; pH 7.4, 40° C.): 3.7 ± 1.6 s⁻¹
Km ([6]; pH 8.0, 37° C.): 154 ± 24 µM
kcar ([6]; pH 8.0, 37° C.): 2.8 ± 1.1 s⁻¹
Km ([7]; pH 6.0, 37° C.): 111 ± 3 µM
kcar ([7]; pH 6.0, 37° C.): 3.0 ± 0.6 s⁻¹
Km ([7]; pH 6.5, 37° C.): 291 ± 5 µM
kcar ([7]; pH 6.5, 37° C.): 7.8 ± 0.8 s⁻¹
kcar ([7]; pH 7.4, 34° C.): 13.0 ± 3.5 s⁻¹
kcar ([7]; pH 7.4, 37° C.): 3.8 ± 1.5 s⁻¹
Km ([7]; pH 7.4, 40° C.): 893 ± 23 µM
kcar ([7]; pH 7.4, 40° C.): 12.3 ± 3.9 s⁻¹
Km ([7]; pH 8.0, 37° C.): 473 ± 6 µM
kcar ([7]; pH 8.0, 37° C.): 4.4 ± 1.0 s⁻¹
